According to ChEMBL document CHEMBL1126335, “Aryl cyanoguanidine potassium channel openers” (Bioorg Med Chem Lett, 1992):
Where “and” joins values, the source holds several entries; their conditions need not be identical. Equal entries are not always repeated.

Key:
Format in all cases: functional
Rattus norvegicus [1] = organism: Rattus norvegicus; experiment: Vasorelaxant potency required to relax methoxamine contracted male Wistar Kyoto rat thoracic aorta
Rattus norvegicus [2] = experiment: Antihypertensive activity expressed as percent maximum decrease in blood pressure at 45 umol/kg for 18-24 hrs in spontaneously hypertensive male rats when administered perorally
Rattus norvegicus [3] = experiment: Antihypertensive activity expressed as percent maximum decrease in blood pressure at 45 umol/Kg for 0-6 hrs in spontaneously hypertensive male rats when administered perorally
Rattus norvegicus [4] = experiment: Antihypertensive activity expressed as percent maximum decrease in blood pressure at 45 umol/kg for 12-18 hrs in spontaneously hypertensive male rats when administered perorally
Rattus norvegicus [5] = experiment: Antihypertensive activity expressed as percent maximum decrease in blood pressure at 45 umol/kg for 6-12 hrs in spontaneously hypertensive male rats when administered perorally

IC50 (Rattus norvegicus [1]) [nM]	SMILES	Max decrease (Rattus norvegicus [2]) [%]	Max decrease (Rattus norvegicus [3]) [%]	Max decrease (Rattus norvegicus [4])	Max decrease (Rattus norvegicus [5]) [%]
123000	C/N=C(\NC#N)Nc1ccc(C#N)cc1				
120	CCC(C)(C)/N=C(\NC#N)Nc1ccc(C#N)cc1				
22	CC(/N=C(\NC#N)Nc1ccc(C#N)cc1)C(C)(C)C (centres undefined)	25	33	26%	26
430	CC(C)(C)/N=C(\NC#N)Nc1ccc(C#N)cc1				

The remaining lines, values behind:

SMILES	IC50 (Rattus norvegicus [1]) [nM]	Max decrease (Rattus norvegicus [2]) [%]	Max decrease (Rattus norvegicus [3]) [%]	Max decrease (Rattus norvegicus [4])	Max decrease (Rattus norvegicus [5]) [%]
CC(C)/N=C(\NC#N)Nc1ccc(C#N)cc1	19000				
CC(/N=C(\NC#N)Nc1cccc(C#N)c1)C(C)(C)C (centres undefined)	420				
CC(N/C(=N\C#N)Nc1ccncc1)C(C)(C)C (centres undefined) [PINACIDIL ANHYDROUS]	70	14	40	21% and 23%	
CC(/N=C(\NC#N)Nc1cccc([N+](=O)[O-])c1)C(C)(C)C (centres undefined)	170				
CCC(C)(C)/N=C(\NC#N)NCc1ccc(C#N)cc1	1500				
CC(/N=C(\NC#N)Nc1ccc([N+](=O)[O-])cc1)C(C)(C)C (centres undefined)	5150				
CC(/N=C(\NC#N)Nc1ccccc1)C(C)(C)C (centres undefined)	880				
CC(/N=C(\NC#N)Nc1ccccc1[N+](=O)[O-])C(C)(C)C (centres undefined)	240				
CC1(C)Oc2ccc(C#N)cc2[C@@H](N2CCCC2=O)[C@@H]1O [CROMAKALIM]	55	42	63	37%	35
